Measured values taken from patent US12655116B2, “Substituted isophthalic acid diamides” (Bayer Aktiengesellschaft, priority 2020, dated 2026).

Legend:
ABUTH [1] = assay: Pre-emergence herbicidal action against ABUTH; format: in vivo, Abutilon theophrasti
Summary of the method: (§1)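 Pre-emergence soil-surface spray of formulated compound (WP or EC; 600 to 800 l/ha; 0.2% wetting agent) over seeds sown in sandy loam. After 3 weeks under greenhouse conditions, damage is estimated visually in percent against untreated plants.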

ALOMY = assay: Pre-emergence herbicidal action against ALOMY; format: in vivo, Alopecurus myosuroides; settings: 80 g/ha, pre-emergence, scored visually after 3 weeks vs untreated controls (100% = plants have died, 0% = like control plants)
Summary of the method: as §1

AMARE [2] = assay: Pre-emergence herbicidal action against AMARE; format: in vivo, Amaranthus retroflexus
Summary of the method: as §1

AVEFA [3] = assay: Pre-emergence herbicidal action against AVEFA; format: in vivo, Avena fatua; settings: 80 g/ha, pre-emergence
Summary of the method: as §1

ECHCG [4] = assay: Pre-emergence herbicidal action against ECHCG; format: in vivo, Echinochloa crus-galli; settings: Echinochloa crus-galli, 504 h, 80 g/ha
Summary of the method: as §1

MATIN [5] = assay: Pre-emergence herbicidal action against MATIN; format: in vivo, Matricaria inodora
Summary of the method: as §1

PHBPU [6] = assay: Pre-emergence herbicidal action against PHBPU; format: in vivo, Pharbitis purpurea; settings: dosage 80 g/ha
Summary of the method: as §1

SETVI [7] = assay: Pre-emergence herbicidal action against SETVI; format: in vivo, Setaria viridis; settings: Setaria viridis, 504 h, dosage 80 g/ha
Summary of the method: as §1

STEME [8] = assay: Pre-emergence herbicidal action against STEME; format: in vivo, Stellaria media
Summary of the method: as §1

VIOTR [9] = assay: Pre-emergence herbicidal action against VIOTR; format: in vivo, Viola tricolor
Summary of the method: as §1

DIGSA [10] = assay: Pre-emergence herbicidal action against DIGSA; format: in vivo, Digitaria sanguinalis
Summary of the method: as §1

ABUTH [11] = assay: Post-emergence herbicidal action against ABUTH; format: in vivo, Abutilon theophrasti; settings: visual assessment about 3 weeks after treatment vs untreated controls
Summary of the method: (§2)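 Spray, one-leaf stage: WP or EC compound in water, 600–800 l/ha, 0.2% wetting agent. Plants held about 3 weeks in the greenhouse, then visually rated in percent of kill compared with untreated controls.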

AMARE [12] = assay: Post-emergence herbicidal action against AMARE; format: in vivo, Amaranthus retroflexus; settings: Amaranthus retroflexus, 504 h, 20 g/ha, visual assessment about 3 weeks after treatment, 100% = plants have died, 0% = like control plants
Summary of the method: as §2

AVEFA [13] = assay: Post-emergence herbicidal action against AVEFA; format: in vivo, Avena fatua; settings: 20 g/ha, visual assessment about 3 weeks after treatment, 100% = plants have died, 0% = like control plants
Summary of the method: as §2

ECHCG [14] = assay: Post-emergence herbicidal action against ECHCG; format: in vivo, Echinochloa crus-galli; settings: Echinochloa crus-galli, 504 h, dosage 20 g/ha
Summary of the method: as §2

MATIN [15] = assay: Post-emergence herbicidal action against MATIN; format: in vivo, Matricaria inodora
Summary of the method: as §2

PHBPU [16] = assay: Post-emergence herbicidal action against PHBPU; format: in vivo, Pharbitis purpurea
Summary of the method: as §2

SETVI [17] = assay: Post-emergence herbicidal action against SETVI; format: in vivo, Setaria viridis; settings: dosage 20 g/ha
Summary of the method: as §2

STEME [18] = assay: Post-emergence herbicidal action against STEME; format: in vivo, Stellaria media
Procedure: Seeds of monocotyledonous and dicotyledonous weed and crop plants are laid out in sandy loam soil in wood-fiber pots, covered with soil and cultivated in a greenhouse under good growth conditions. 2 to 3 weeks after sowing, the test plants are treated at the one-leaf stage. The compounds of the invention, formulated in the form of wettable powders (WP) or as emulsion concentrates (EC), are then sprayed onto the green parts of the plants in the form of an aqueous suspension or emulsion at a water application rate equivalent to 600 to 800 l/ha, with addition of 0.2% wetting agent. After the test plants have been left to stand in the greenhouse under optimal growth conditions for about 3 weeks, the action of the preparations is assessed visually in comparison to untreated controls (herbicidal action in percent (%): 100% activity=the plants have died, 0% activity=like control plants). […] The tables below illustrate, in an illustrative manner, the post-emergence herbicidal action of the compounds of the invention, the herbicidal activity being stated in percent.

VERPE [19] = assay: Post-emergence herbicidal action against VERPE; format: in vivo, Veronica persica; settings: Veronica persica, 504 h
Summary of the method: as §2

VIOTR [20] = assay: Post-emergence herbicidal action against VIOTR; format: in vivo, Viola tricolor
Summary of the method: as §2

DIGSA [21] = assay: Post-emergence herbicidal action against DIGSA; format: in vivo, Digitaria sanguinalis
Summary of the method: as §2

VERPE [22] = assay: Pre-emergence herbicidal action against VERPE; format: in vivo, Veronica persica; settings: dosage 80 g/ha
Summary of the method: as §1

[23] = Tripleurospermum inodorum, 504 h, dosage 20 g/ha
[24] = 80 g/ha, scored visually after 3 weeks vs untreated controls (100% = plants have died, 0% = like control plants)

CNC(=O)c1c(C(F)F)ccc(C(=O)Nc2nnnn2C)c1C [Example 1-44]
pest or weed control at 80 g/ha (ABUTH [1]; Abutilon theophrasti, 504 h, 80 g/ha, scored visually after 3 weeks vs untreated controls (100% = plants have died, 0% = like control plants)): 100%
pest or weed control at 20 g/ha (ABUTH [1]; Abutilon theophrasti, 504 h, dosage 20 g/ha, scored visually after 3 weeks vs untreated controls, 100% = plants have died, 0% = like control plants, read-out: Pre-emergence action against ABUTH (herbicidal activity in percent)): 100%
pest or weed control at 80 g/ha (ALOMY; Alopecurus myosuroides, 504 h): 90%
pest or weed control at 20 g/ha (AMARE [2]; Amaranthus retroflexus, 504 h, 20 g/ha, scored visually after 3 weeks vs untreated controls, 100% = plants have died, 0% = like control plants): 100%
pest or weed control at 80 g/ha (AMARE [2]; Amaranthus retroflexus, 504 h, 80 g/ha, scored visually after 3 weeks vs untreated controls, 100% = plants have died, 0% = like control plants): 100%
pest or weed control at 80 g/ha (AVEFA [3]; Avena fatua, 504 h): 90%
pest or weed control at 80 g/ha (ECHCG [4]): 90%
pest or weed control at 20 g/ha (MATIN [5]; [23]): 90%
pest or weed control at 80 g/ha (MATIN [5]; Tripleurospermum inodorum, 504 h, dosage 80 g/ha): 90%
pest or weed control at 80 g/ha (PHBPU [6]; Ipomoea purpurea, 504 h): 80%
pest or weed control at 80 g/ha (SETVI [7]): 100%
pest or weed control at 20 g/ha (STEME [8]; Stellaria media, 504 h, dosage 20 g/ha): 90%
pest or weed control at 80 g/ha (STEME [8]; Stellaria media, 504 h, dosage 80 g/ha): 90%
pest or weed control at 80 g/ha (VIOTR [9]; Viola tricolor, 504 h, dosage 80 g/ha): 90%
pest or weed control at 20 g/ha (DIGSA [10]; Digitaria sanguinalis, 504 h, dosage 20 g/ha): 90%
pest or weed control at 80 g/ha (DIGSA [10]; Digitaria sanguinalis, 504 h, dosage 80 g/ha): 100%
pest or weed control at 5 g/ha (ABUTH [11]; Abutilon theophrasti, 504 h, dosage 5 g/ha): 90%
pest or weed control at 20 g/ha (ABUTH [11]; Abutilon theophrasti, 504 h, dosage 20 g/ha): 100%
pest or weed control at 20 g/ha (AMARE [12]): 100%
pest or weed control at 20 g/ha (AVEFA [13]; Avena fatua, 504 h): 80%
pest or weed control at 20 g/ha (ECHCG [14]): 80%
pest or weed control at 5 g/ha (MATIN [15]; Tripleurospermum inodorum, 504 h, dosage 5 g/ha): 80%
pest or weed control at 20 g/ha (MATIN [15]; [23]): 90%
pest or weed control at 20 g/ha (PHBPU [16]; Ipomoea purpurea, 504 h, dosage 20 g/ha): 80%
pest or weed control at 20 g/ha (SETVI [17]; Setaria viridis, 504 h): 90%
pest or weed control at 20 g/ha (STEME [18]; Stellaria media, 504 h, 20 g/ha): 80%
pest or weed control at 5 g/ha (STEME [18]; Stellaria media, 504 h, dosage 5 g/ha): 80%
pest or weed control at 5 g/ha (VERPE [19]; 5 g/ha): 80%
pest or weed control at 20 g/ha (VERPE [19]; 20 g/ha): 100%
pest or weed control at 20 g/ha (VIOTR [20]; Viola tricolor, 504 h, 20 g/ha): 80%
pest or weed control at 5 g/ha (DIGSA [21]; Digitaria sanguinalis, 504 h, 5 g/ha): 80%
pest or weed control at 20 g/ha (DIGSA [21]; Digitaria sanguinalis, 504 h, 20 g/ha): 90%

CCCn1nnnc1NC(=O)c1ccc(C(F)(F)F)c(C(=O)NC2CC2)c1C [Example 3-27]
Pre-emergence action against ABUTH (herbicidal activity) (ABUTH [1]; [24]): 100%
Pre-emergence action against ABUTH (herbicidal activity in percent) (ABUTH [1]; dosage 20 g/ha, scored visually after 3 weeks vs untreated controls, 100% = plants have died, 0% = like control plants): 100%
Pre-emergence action against ALOMY (herbicidal activity) (ALOMY): 90%
Pre-emergence action against AMARE in % (AMARE [2]; 20 g/ha, scored visually after 3 weeks vs untreated controls, 100% = plants have died, 0% = like control plants): 100%
Pre-emergence action against AMARE in % (AMARE [2]; [24]): 100%
Pre-emergence action against AVEFA in % (AVEFA [3]): 90%
Pre-emergence action against MATIN in % (MATIN [5]; dosage 20 g/ha): 100%
Pre-emergence action against MATIN in % (MATIN [5]; dosage 80 g/ha): 100%
Pre-emergence action against PHBPU in % (PHBPU [6]): 90%
Pre-emergence action against STEME in % (STEME [8]; dosage 20 g/ha): 100%
Pre-emergence action against STEME in % (STEME [8]; dosage 80 g/ha): 100%
Pre-emergence action against VERPE in % (VERPE [22]): 90%
Pre-emergence action against VIOTR in % (VIOTR [9]; dosage 20 g/ha): 90%
Pre-emergence action against VIOTR in % (VIOTR [9]; dosage 80 g/ha): 100%
Pre-emergence action against DIGSA in % (DIGSA [10]; dosage 80 g/ha): 100%
Post-emergence action against ABUTH in % (ABUTH [11]; dosage 20 g/ha): 100%
Post-emergence action at 20 g/ha against AVEFA in % (AVEFA [13]): 90%
Post-emergence action against MATIN in % (MATIN [15]; dosage 5 g/ha): 90%
Post-emergence action against MATIN in % (MATIN [15]; dosage 20 g/ha): 100%
Post-emergence action against PHBPU in % (PHBPU [16]; dosage 5 g/ha): 90%
Post-emergence action against PHBPU in % (PHBPU [16]; dosage 20 g/ha): 100%
Post-emergence action against SETVI in % (SETVI [17]): 90%
Post-emergence action against STEME in % (STEME [18]; 20 g/ha): 80%
Post-emergence action against VIOTR in % (VIOTR [20]; 5 g/ha): 80%
Post-emergence action against VIOTR in % (VIOTR [20]; 20 g/ha): 100%
Post-emergence action against DIGSA (DIGSA [21]; 20 g/ha): 100%
